Columns and labels:
[1] = biological target: T1, CBP (Homo sapiens, UniProt Q92793); experiment: CBP degradation, HiBit technology in A549 CBP HiBit cells (24 h); format: cell-based; conditions: 24 hrs post treatment
T1 construct: host or cells: A549 CBP HiBit cells
Method in brief: (§1)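 A549 HiBiT knock-in cells seeded overnight at 37 °C, 5% CO2 in F-12K with 10% heat-inactivated FBS, then given serial dilutions of compound from 10 mM DMSO stocks. Lytic HiBiT detection reagent added for 10 min at room temperature; luminescence read. Potency and Dmax reported.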

[2] = biological target: T2, p300 (Homo sapiens, UniProt Q09472); experiment: P300 degradation, HiBit technology in A549 P300 HiBit cells (2 h); format: cell-based; conditions: 2 hrs post treatment; for Dmax: A549, A549 P300 HiBit cells; for DC50: A549 P300 HiBit cells
T2 construct: host or cells: A549 P300 HiBit cells
T2 sequence (Q09472 whole entry): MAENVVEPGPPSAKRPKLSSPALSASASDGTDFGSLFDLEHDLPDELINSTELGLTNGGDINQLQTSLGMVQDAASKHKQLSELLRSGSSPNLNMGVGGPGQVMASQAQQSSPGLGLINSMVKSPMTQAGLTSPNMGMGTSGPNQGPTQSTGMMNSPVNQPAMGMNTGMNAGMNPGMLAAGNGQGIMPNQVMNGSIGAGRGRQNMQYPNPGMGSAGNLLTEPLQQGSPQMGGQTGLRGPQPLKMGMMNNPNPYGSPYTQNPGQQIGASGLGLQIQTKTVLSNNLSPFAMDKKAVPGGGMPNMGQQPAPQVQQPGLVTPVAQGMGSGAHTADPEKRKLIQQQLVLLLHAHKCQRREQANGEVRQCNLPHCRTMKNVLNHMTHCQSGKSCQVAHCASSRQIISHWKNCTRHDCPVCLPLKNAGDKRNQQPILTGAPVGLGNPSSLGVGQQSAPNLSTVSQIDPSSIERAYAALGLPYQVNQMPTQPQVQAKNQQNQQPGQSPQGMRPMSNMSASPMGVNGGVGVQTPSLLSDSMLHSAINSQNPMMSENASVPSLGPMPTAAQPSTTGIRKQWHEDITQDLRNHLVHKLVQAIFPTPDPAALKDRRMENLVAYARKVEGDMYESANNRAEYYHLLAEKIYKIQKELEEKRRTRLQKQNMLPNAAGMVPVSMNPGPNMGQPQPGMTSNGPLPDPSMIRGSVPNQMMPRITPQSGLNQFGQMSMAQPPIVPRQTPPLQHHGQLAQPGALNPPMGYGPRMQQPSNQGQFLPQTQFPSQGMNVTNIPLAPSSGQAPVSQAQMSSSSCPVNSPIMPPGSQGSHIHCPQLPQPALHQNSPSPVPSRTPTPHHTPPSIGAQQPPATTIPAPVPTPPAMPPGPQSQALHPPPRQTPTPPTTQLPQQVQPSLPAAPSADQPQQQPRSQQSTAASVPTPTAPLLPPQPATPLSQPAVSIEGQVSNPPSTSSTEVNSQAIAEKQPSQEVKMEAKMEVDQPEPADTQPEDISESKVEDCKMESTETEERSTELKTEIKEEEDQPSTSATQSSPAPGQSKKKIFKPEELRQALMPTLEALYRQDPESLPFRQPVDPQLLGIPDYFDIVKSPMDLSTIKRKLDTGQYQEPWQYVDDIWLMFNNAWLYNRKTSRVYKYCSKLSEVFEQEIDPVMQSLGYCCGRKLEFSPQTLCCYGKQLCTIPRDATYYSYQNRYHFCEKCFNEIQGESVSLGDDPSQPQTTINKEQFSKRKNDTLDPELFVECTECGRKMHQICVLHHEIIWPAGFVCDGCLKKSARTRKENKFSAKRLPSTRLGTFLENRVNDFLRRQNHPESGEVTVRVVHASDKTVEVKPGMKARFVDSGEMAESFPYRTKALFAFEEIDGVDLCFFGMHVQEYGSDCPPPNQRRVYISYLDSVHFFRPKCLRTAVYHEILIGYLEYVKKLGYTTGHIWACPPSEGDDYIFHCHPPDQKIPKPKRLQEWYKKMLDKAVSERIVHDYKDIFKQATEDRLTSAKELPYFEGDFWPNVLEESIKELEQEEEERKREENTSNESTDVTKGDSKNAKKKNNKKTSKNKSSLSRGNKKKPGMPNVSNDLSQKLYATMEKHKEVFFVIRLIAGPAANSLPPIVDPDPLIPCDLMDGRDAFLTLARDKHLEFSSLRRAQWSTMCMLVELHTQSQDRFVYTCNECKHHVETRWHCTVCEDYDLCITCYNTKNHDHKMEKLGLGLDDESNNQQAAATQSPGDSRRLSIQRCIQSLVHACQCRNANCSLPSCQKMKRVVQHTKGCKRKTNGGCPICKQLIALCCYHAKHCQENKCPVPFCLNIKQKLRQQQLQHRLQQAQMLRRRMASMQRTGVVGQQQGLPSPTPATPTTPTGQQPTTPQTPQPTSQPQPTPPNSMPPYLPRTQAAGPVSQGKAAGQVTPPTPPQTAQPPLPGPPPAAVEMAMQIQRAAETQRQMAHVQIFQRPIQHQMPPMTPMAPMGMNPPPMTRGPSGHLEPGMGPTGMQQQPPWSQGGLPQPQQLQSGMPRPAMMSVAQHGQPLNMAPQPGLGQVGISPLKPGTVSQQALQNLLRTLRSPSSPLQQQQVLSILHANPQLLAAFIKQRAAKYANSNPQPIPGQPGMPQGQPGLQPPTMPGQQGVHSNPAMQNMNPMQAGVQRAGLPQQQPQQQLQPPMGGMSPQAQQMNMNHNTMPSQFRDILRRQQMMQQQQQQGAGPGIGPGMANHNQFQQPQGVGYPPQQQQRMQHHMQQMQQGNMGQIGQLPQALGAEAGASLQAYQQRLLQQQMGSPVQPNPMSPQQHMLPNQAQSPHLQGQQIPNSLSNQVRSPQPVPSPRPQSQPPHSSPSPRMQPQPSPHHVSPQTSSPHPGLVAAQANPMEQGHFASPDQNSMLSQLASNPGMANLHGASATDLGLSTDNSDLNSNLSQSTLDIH
Method in brief: as §1

T1 sequence (Q92793 whole entry): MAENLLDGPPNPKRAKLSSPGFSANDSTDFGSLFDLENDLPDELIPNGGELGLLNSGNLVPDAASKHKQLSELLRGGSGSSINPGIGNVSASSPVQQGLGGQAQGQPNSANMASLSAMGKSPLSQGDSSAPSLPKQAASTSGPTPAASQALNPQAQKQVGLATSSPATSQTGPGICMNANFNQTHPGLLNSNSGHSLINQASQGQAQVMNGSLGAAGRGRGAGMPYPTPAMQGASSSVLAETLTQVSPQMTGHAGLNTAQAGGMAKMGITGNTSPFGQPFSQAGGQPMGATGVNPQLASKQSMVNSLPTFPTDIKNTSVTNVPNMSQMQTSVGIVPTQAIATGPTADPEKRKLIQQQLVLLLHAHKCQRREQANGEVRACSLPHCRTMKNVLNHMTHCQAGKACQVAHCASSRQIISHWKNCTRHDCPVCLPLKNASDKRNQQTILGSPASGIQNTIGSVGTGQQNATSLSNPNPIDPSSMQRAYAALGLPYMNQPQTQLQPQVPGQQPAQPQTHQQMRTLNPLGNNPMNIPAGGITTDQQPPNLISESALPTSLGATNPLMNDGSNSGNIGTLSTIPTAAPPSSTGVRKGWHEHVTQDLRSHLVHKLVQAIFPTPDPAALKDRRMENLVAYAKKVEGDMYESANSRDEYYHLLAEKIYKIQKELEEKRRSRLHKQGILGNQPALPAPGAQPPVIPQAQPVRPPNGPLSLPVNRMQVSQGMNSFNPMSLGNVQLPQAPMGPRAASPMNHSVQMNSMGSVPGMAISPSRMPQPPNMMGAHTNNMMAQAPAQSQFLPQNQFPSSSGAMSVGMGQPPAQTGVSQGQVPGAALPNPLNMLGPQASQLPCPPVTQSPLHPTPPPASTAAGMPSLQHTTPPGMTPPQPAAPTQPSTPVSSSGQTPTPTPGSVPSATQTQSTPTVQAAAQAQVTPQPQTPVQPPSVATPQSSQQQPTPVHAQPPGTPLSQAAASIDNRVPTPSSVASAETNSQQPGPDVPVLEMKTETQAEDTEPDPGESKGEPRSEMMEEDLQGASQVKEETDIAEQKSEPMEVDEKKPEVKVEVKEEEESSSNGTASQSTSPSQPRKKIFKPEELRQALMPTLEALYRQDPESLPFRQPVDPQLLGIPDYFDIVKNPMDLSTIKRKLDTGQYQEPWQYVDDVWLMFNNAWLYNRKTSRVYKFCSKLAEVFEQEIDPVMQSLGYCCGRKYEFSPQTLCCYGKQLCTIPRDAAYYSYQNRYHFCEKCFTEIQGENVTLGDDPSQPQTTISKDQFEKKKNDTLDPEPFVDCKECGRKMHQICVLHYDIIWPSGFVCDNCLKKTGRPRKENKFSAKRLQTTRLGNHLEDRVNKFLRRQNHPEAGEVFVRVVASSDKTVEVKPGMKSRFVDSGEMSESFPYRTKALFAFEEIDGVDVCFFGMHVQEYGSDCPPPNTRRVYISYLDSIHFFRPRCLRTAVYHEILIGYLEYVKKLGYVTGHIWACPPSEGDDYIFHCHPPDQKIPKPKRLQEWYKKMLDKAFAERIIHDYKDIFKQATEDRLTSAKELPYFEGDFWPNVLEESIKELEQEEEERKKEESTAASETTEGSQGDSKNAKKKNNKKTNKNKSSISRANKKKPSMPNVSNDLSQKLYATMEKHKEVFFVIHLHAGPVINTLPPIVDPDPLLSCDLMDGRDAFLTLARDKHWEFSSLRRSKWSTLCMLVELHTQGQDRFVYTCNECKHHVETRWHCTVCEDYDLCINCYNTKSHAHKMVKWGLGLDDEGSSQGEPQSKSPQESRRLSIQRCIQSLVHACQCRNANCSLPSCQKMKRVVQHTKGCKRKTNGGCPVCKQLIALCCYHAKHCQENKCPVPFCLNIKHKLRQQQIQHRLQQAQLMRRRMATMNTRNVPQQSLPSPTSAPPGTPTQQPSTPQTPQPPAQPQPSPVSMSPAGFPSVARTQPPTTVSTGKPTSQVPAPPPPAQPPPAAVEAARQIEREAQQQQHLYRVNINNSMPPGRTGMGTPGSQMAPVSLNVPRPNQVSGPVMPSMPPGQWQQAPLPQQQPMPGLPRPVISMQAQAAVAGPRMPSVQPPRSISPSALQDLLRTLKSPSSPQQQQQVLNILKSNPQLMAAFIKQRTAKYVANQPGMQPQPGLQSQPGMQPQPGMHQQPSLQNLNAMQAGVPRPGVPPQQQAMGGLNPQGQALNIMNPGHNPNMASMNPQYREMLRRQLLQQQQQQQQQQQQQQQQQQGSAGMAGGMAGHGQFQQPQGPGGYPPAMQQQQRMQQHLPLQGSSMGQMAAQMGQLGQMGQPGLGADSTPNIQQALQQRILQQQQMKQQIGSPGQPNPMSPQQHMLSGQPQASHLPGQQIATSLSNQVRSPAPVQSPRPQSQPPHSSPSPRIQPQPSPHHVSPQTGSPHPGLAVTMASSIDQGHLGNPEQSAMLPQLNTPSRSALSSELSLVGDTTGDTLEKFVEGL

Compound: Cn1c(=O)n(C)c2cc(-c3cccc4cc(-c5ccc(C(=O)NCC#Cc6cc7c([C@@H]8CCC(=O)NC8=O)cccc7o6)nc5)ncc34)ccc21 [Example A171, (S)-5-(8-(1,3-dimethyl-2-oxo-2,3-dihydro-1H-benzo[d]imidazol-5-yl)isoquinolin-3-yl)-N-(3-(4-(2,6-dioxopiperidin-3-yl)benzofuran-2-yl)prop-2-yn-1-yl)picolinamide]
- DC50 [1]: > 1 µM
- Dmax [1]: < 20%
- Dmax [2]: > 80%
- DC50 [2]: 0.001 to 0.0099 µM

Compound: CC(C)c1cc(-c2cccc3cc(-c4ccc(C(=O)NCC#Cc5ccn6ncc(C7CCC(=O)NC7=O)c6c5)nc4)ncc23)cc2c1n(C)c(=O)n2C (centres unmarked) [Example A172, N-(3-(3-(2,6-dioxo-piperidin-3-yl)pyrazolo[1,5-a]pyridin-5-yl)prop-2-yn-1-yl)-5-(8-(7-isopropyl-1,3-dimethyl-2-oxo-2,3-dihydro-1H-benzo[d]imidazol-5-yl)isoquinolin-3-yl)picolinamide]
- DC50 [1]: 0.1 to 0.999 µM
- Dmax [1]: < 20%
- Dmax [2]: > 80%
- DC50 [2]: < 0.001 µM

Compound: Cc1cc(-c2ncc3c(n2)OCCN3c2ccc3c(c2)n(C)c(=O)n3C)cnc1C(=O)NCC#Cc1cc2c(C3CCC(=O)NC3=O)cccc2o1 (centres unmarked) [Example A173, 5-(5-(1,3-dimethyl-2-oxo-2,3-dihydro-1H-benzo[d]imidazol-5-yl)-6,7-dihydro-5H-pyrimido[4,5-b][1,4]oxazin-2-yl)-N-(3-(4-(2,6-dioxopiperidin-3-yl)benzofuran-2-yl)prop-2-yn-1-yl)-3-methylpicolinamide]
- DC50 [1]: > 1 µM
- Dmax [1]: < 20%
- Dmax [2]: > 80%
- DC50 [2]: 0.001 to 0.0099 µM

Compound: Cc1cc(-c2ncc3c(n2)OCCN3c2ccc3c(c2)n(C)c(=O)n3C)cnc1C(=O)NCC#Cc1cc2c([C@H]3CCC(=O)NC3=O)cccc2o1 [Example A174, (R)-5-(5-(1,3-dimethyl-2-oxo-2,3-dihydro-1H-benzo [d]imidazol-5-yl)-6,7-dihydro-5H-pyrimido [4,5-b][1,4]oxazin-2-yl)-N-(3-(4-(2,6-dioxopiperidin-3-yl)benzofuran-2-yl)prop-2-yn-1-yl)-3-methylpicolinamide]
- DC50 [1]: > 1 µM
- Dmax [1]: < 20%
- Dmax [2]: > 80%
- DC50 [2]: 0.001 to 0.0099 µM

Compound: Cc1cc(-c2ncc3c(n2)OCCN3c2ccc3c(c2)n(C)c(=O)n3C)cnc1C(=O)NCC#Cc1cc2c([C@@H]3CCC(=O)NC3=O)cccc2o1 [Example A175, (S)-5-(5-(1,3-dimethyl-2-oxo-2,3-dihydro-1H-benzo[d]imidazol-5-yl)-6,7-dihydro-5H-pyrimido[4,5-b] [1,4]oxazin-2-yl)-N-(3-(4-(2,6-dioxo-piperidin-3-yl)benzofuran-2-yl)prop-2-yn-1-yl)-3-methylpicolinamide]
- DC50 [1]: > 1 µM
- Dmax [1]: < 20%
- Dmax [2]: > 80%
- DC50 [2]: 0.01 to 0.099 µM

Compound: Cc1cc(-c2cc3cccc(-c4cc(C(C)C)c5c(c4)n(C)c(=O)n5C)c3cn2)cnc1C(=O)NCC#Cc1cccc(NC23CC(C2)C(=O)NC3=O)c1 [Example A177, N-(3-(3-((2,4-dioxo-3-azabicyclo[3.1.1]heptan-1-yl)amino)phenyl)prop-2-yn-1-yl)-5-(8-(7-isopropyl-1,3-dimethyl-2-oxo-2,3-dihydro-1H-benzo[d]imidazol-5-yl)isoquinolin-3-yl)-3-methylpicolinamide]
- DC50 [1]: > 1 µM
- Dmax [1]: < 20%
- Dmax [2]: > 80%
- DC50 [2]: 0.01 to 0.099 µM

Compound: Cn1c(=O)n(C)c2cc(N3CCOc4nc(-c5ccc(C(=O)NCC#Cc6ccc7occ(C89CC(C8)C(=O)NC9=O)c7c6)nc5)ncc43)ccc21 [Example A178, 5-(5-(1,3-dimethyl-2-oxo-2,3-dihydro-1H-benzo[d]imidazol-5-yl)-6,7-dihydro-5H-pyrimido[4,5-b][1,4]oxazin-2-yl)-N-(3-(3-(2,4-dioxo-3-azabicyclo [3.1.1]heptan-1-yl)benzofuran-5-yl)prop-2-yn-1-yl)picolinamide]
- DC50 [1]: > 1 µM
- Dmax [1]: < 20%
- Dmax [2]: 20 to 39%
- DC50 [2]: 0.01 to 0.099 µM

Compound: Cc1cc(-c2cc3cccc(-c4ccc5c(c4)n(C)c(=O)n5C)c3cn2)cnc1C(=O)NCC#Cc1cc2c(C3CCC(=O)NC3=O)cccc2o1 (centres unmarked) [Example A180, 5-(8-(1,3-dimethyl-2-oxo-2,3-dihydro-1H-benzo[d]imidazol-5-yl)isoquinolin-3-yl)-N-(3-(4-(2,6-dioxo-piperidin-3-yl)benzofuran-2-yl)prop-2-yn-1-yl)-3-methylpicolinamide]
- DC50 [1]: > 1 µM
- Dmax [1]: < 20%
- Dmax [2]: > 80%
- DC50 [2]: 0.001 to 0.0099 µM

Compound: Cc1cc(-c2cc3cccc(-c4ccc5c(c4)n(C)c(=O)n5C)c3cn2)cnc1C(=O)NCC#Cc1cc2c([C@H]3CCC(=O)NC3=O)cccc2o1 [Example A181, (R)-5-(8-(1,3-dimethyl-2-oxo-2,3-dihydro-1H-benzo [d]imidazol-5-yl)isoquinolin-3-yl)-N-(3-(4-(2,6-dioxopiperidin-3-yl)benzofuran-2-yl)prop-2-yn-1-yl)-3-methylpicolinamide]
- DC50 [1]: 0.1 to 0.999 µM
- Dmax [1]: < 20%
- Dmax [2]: > 80%
- DC50 [2]: 0.001 to 0.0099 µM

Compound: Cc1cc(-c2cc3cccc(-c4ccc5c(c4)n(C)c(=O)n5C)c3cn2)cnc1C(=O)NCC#Cc1cc2c([C@@H]3CCC(=O)NC3=O)cccc2o1 [Example A182, (S)-5-(8-(1,3-dimethyl-2-oxo-2,3-dihydro-1H-benzo[d]imidazol-5-yl)isoquinolin-3-yl)-N-(3-(4-(2,6-dioxopiperidin-3-yl)benzofuran-2-yl)prop-2-yn-1-yl)-3-methylpicolinamide]
- DC50 [1]: > 1 µM
- Dmax [1]: < 20%
- Dmax [2]: > 80%
- DC50 [2]: 0.001 to 0.0099 µM

Compound: CC(C)c1cc(-c2cccc3cc(-c4ccc(C(=O)NCC#Cc5cc6c(F)ccc(C7CCC(=O)NC7=O)c6o5)nc4)ncc23)cc2c1n(C)c(=O)n2C (centres unmarked) [Example A185, N-(3-(7-(2,6-dioxo-piperidin-3-yl)-4-fluorobenzofuran-2-yl)prop-2-yn-1-yl)-5-(8-(7-isopropyl-1,3-dimethyl-2-oxo-2,3-dihydro-1H-benzo [d]imidazol-5-yl)isoquinolin-3-yl)picolinamide]
- DC50 [1]: > 1 µM
- Dmax [1]: < 20%
- Dmax [2]: 60 to 79%
- DC50 [2]: 0.01 to 0.099 µM

Compound: Cc1cc(-c2cc3cccc(-c4cnc5c(c4)n(C)c(=O)n5C)c3cn2)cnc1C(=O)NCC#Cc1cc2c(C3CCC(=O)NC3=O)cccc2o1 (centres unmarked) [Example A189, 5-(8-(1,3-dimethyl-2-oxo-2,3-dihydro-1H-imidazo[4,5-b]pyridin-6-yl)isoquinolin-3-yl)-N-(3-(4-(2,6-dioxopiperidin-3-yl)benzofuran-2-yl)prop-2-yn-1-yl)-3-methylpicolinamide]
- DC50 [1]: > 1 µM
- Dmax [1]: < 20%
- Dmax [2]: > 80%
- DC50 [2]: 0.001 to 0.0099 µM

Compound: CC(C)c1cc(-c2cccc3cc(-c4ccc(C(=O)NCC#Cc5oc6c(C7CCC(=O)NC7=O)cccc6c5F)nc4)ncc23)cc2c1n(C)c(=O)n2C (centres unmarked) [Example A191, N-(3-(7-(2,6-dioxo-piperidin-3-yl)-3-fluorobenzofuran-2-yl)prop-2-yn-1-yl)-5-(8-(7-isopropyl-1,3-dimethyl-2-oxo-2,3-dihydro-1H-benzo [d]imidazol-5-yl)isoquinolin-3-yl)picolinamide]
- DC50 [1]: > 1 µM
- Dmax [1]: < 20%
- Dmax [2]: > 80%
- DC50 [2]: 0.01 to 0.099 µM

Compound: Cn1c(=O)n(C)c2c(N3CC4CCC(C3)O4)nc(-c3cccc4cc(-c5ccc(C(=O)NCC#Cc6ccc7occ(C89CC(C8)C(=O)NC9=O)c7c6)nc5)ncc34)cc21 [Example A194, 5-(8-(4-(8-oxa-3-azabicyclo[3.2.1]octan-3-yl)-1,3-dimethyl-2-oxo-2,3-dihydro-1H-imidazo[4,5-c]pyridin-6-yl)isoquinolin-3-yl)-N-(3-(3-(2,4-dioxo-3-azabicyclo[3.1.1]heptan-1-yl)benzofuran-5-yl)prop-2-yn-1-yl)picolinamide]
- DC50 [1]: > 1 µM
- Dmax [1]: < 20%
- Dmax [2]: > 80%
- DC50 [2]: 0.001 to 0.0099 µM

Compound: Cc1cc(-c2ncc3c(n2)OCCN3c2ccc3c(c2)n(C)c(=O)n3C)cnc1C(=O)NCC#Cc1cc2c(C3CCC(=O)NC3=O)nccc2o1 (centres unmarked) [Example A195, 5-(5-(1,3-dimethyl-2-oxo-2,3-dihydro-1H-benzo[d]imidazol-5-yl)-6,7-dihydro-5H-pyrimido[4,5-b][1,4]oxazin-2-yl)-N-(3-(4-(2,6-dioxopiperidin-3-yl)furo[3,2-c]pyridin-2-yl)prop-2-yn-1-yl)-3-methylpicolinamide]
- DC50 [1]: > 1 µM
- Dmax [1]: < 20%
- Dmax [2]: > 80%
- DC50 [2]: 0.001 to 0.0099 µM

Compound: CC(C)c1cc(-c2cccc3cc(-c4ccc(C(=O)NCC#Cc5cc6c(C7CCC(=O)NC7=O)cccc6o5)nc4)ncc23)cc2c1n(C)c(=O)n2C (centres unmarked) [Example A197, N-(3-(4-(2,6-dioxo-piperidin-3-yl)benzofuran-2-yl)prop-2-yn-1-yl)-5-(8-(7-isopropyl-1,3-dimethyl-2-oxo-2,3-dihydro-1H-benzo [d]imidazol-5-yl)isoquinolin-3-yl)picolinamide]
- DC50 [1]: > 1 µM
- Dmax [1]: < 20%
- Dmax [2]: > 80%
- DC50 [2]: 0.001 to 0.0099 µM

Compound: Cc1cc(N2CCOc3nc(-c4ccc(C(=O)NCC#Cc5cc6c(C7CCC(=O)NC7=O)cccc6o5)nc4)ncc32)cc2c1n(C)c(=O)n2C (centres unmarked) [Example A199, N-(3-(4-(2,6-dioxo-piperidin-3-yl)benzofuran-2-yl)prop-2-yn-1-yl)-5-(5-(1,3,7-trimethyl-2-oxo-2,3-dihydro-1H-benzo[d]imidazol-5-yl)-6,7-dihydro-5H-pyrimido[4,5-b] [1,4]oxazin-2-yl)picolinamide]
- DC50 [1]: 0.1 to 0.999 µM
- Dmax [1]: < 20%
- Dmax [2]: > 80%
- DC50 [2]: 0.001 to 0.0099 µM
